The target in experiment [1] is T1, Purified human steroid sulfatase (Homo sapiens, UniProt P08842).
T1 sequence (P08842 22-583): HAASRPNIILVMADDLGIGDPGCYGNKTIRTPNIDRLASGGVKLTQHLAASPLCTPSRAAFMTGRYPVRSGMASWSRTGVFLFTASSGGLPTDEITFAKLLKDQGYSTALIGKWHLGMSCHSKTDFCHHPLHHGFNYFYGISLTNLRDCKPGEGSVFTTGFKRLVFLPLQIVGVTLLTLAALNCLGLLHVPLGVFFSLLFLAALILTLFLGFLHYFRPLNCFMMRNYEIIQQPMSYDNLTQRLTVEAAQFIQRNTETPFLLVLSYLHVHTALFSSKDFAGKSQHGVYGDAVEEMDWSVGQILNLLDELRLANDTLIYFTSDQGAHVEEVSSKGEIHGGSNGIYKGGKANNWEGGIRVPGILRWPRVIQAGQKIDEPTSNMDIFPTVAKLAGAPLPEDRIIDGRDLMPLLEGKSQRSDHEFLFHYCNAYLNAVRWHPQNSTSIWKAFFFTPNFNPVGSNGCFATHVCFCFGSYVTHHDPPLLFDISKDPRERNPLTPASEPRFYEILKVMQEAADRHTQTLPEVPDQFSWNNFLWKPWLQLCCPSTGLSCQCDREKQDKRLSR
As to the kind of experiment: Steroid sulfatase inhibition in vitro (p-nitrocatechol sulfate cleavage).
Method: Steroid sulfatase inhibition in vitro:
Purified human steroid sulfatase not only is capable of cleaving steroid sulfates, but also readily cleaves aryl sulfates, such as p-nitrocatechol sulfate which is used herein. Assay mixtures are prepared by consecutively dispensing the following solutions into the wells of flat-bottom microtiter plates:
1) 50 μl inhibitor dilution in buffer (=0.1 M Tris-HCl, ph 7.5, 0.1% Triton X-100);
2) 50 μl substrate (=20 mM p-nitrocatechol sulfate in buffer)
3) 50 μl enzyme dilution to give a final concentration of 75 nM steroid sulfatase.
Plates are incubated at 37° C. for 30 minutes. The assay is stopped by addition of 100 μl of 1 N NaOH, and optical density measured in a microplate reader at 492 nm. […] IC50 values are calculated by nonlinear regression of the concentration/optical density data using the program Grafit (Erithacus Ltd.). Reported values are the result of three determinations.
From the fluorescence intensity data (I) obtained at different concentrations (c) of the test compound, the concentration inhibiting the enzymatic activity at 50% (IC50) is calculated using the equation [formula]
Relative IC50 values (rel IC50) are defined as follows: [formula]

For experiment [2], the target named is T2, CHO cells stably transfected with human steroid sulfatase (CHO/STS) (Homo sapiens, UniProt P08842).
T2 construct: expressed in transfected cells; host or cells: CHO cells, stably transfected
T2 sequence (P08842 22-583): T1 sequence (P08842 22-583)
As to the kind of experiment: Steroid sulfatase inhibition in the CHO/STS assay. The class given is cell-based. The following applies: assay 2, CHO/STS cells, overnight incubation, MUS substrate. On the procedure: 2. Steroid sulfatase inhibition in the CHO/STS assay:
CHO cells stably transfected with human steroid sulfatase (CHO/STS) are seeded into microtiter plates. After reaching approximately 90% confluency, they are incubated overnight with graded concentrations of test substances. They are then fixed with 4% paraformaldehyde for 10 minutes at room temperature and washed 4 times with PBS before incubation with 100 μl/well 0.5 mM 4-methylumbelliferyl sulfate (MUS) dissolved in 0.1M Tris-HCl, pH 7.5. The enzyme reaction is carried out at 37° C. for one hour. Then 50 μl/well stop solution (1M Tris-HCl, pH 10.4) are added. The enzyme reaction solutions are transferred to white plates (Microfluor, Dynex, Chantilly, Va., USA) and read in a Fluoroskan II fluroescence microtiter plate reader. Reagent blanks are subtracted from all values. For drug testing, the fluorescence units (FU) are divided by the optical density readings after staining cellular protein with sulforhodamine B (OD550) in order to correct for variations in cell number. IC50 values are determined by linear interpolation between two bracketing points. In each assay with inhibitors, estrone 3-O-sulfamate is run as a reference compound, and the IC50 values are normalized to estrone 3-O-sulfamate:
relative IC50=IC50 compound/IC50 estrone 3-O-sulfamate.

The record followed here is US6716865B1, “Benzoxa- and benzthiazoles” (Novartis AG, priority 1999, dated 2004).

Turning to `NS(=O)(=O)Oc1ccc2nc(C=C3C4CC5CC(C4)CC3C5)oc2c1` [Example 12, sulfamic acid 2-(adamantan-2-ylidenemethyl)benzoxazol-6-yl ester], in experiment [1], the IC50 (usually the concentration that gives 50% inhibition) is around 970 nM. In addition, the “rel IC50 (IC50 compound/IC50 estrone 3-O-sulfamate)” value in experiment [2] is recorded as 1.25.
